T1: human β2GPI (Homo sapiens, UniProt P02749)
T1 construct: Human β2GPI (hβ2GP1) was purified from human plasma essentially as described previously; from tissue; host or cells: pooled human plasma
T1 sequence (P02749 20-345): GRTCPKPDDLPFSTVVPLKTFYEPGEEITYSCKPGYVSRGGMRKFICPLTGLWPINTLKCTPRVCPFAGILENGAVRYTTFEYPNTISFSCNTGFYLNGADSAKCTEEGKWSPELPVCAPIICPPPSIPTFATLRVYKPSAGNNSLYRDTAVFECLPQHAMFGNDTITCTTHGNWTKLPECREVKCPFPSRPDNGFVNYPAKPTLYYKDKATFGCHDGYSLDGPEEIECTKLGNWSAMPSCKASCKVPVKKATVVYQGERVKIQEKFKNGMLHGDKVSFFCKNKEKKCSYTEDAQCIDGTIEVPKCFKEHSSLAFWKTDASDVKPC

B1: Fc-mβ2GPI: Fc region of mouse IgG2a attached to full length mouse β2GPI (domains I-V); SEQ ID NO:19 (protein, listed as Mus musculus)
chain: EPRGPTIKPCPPCKCPAPNLLGGPSVFIFPPKIKDVLMISLSPIVTCVVVDVSEDDPDVQISWFVNNVEVHTAQTQTHREDYNSTLRVVSALPIQHQDWMSGKEFKCKVNNKDLPAPIERTISKPKGSVRAPQVYVLPPPEEEMTKKQVTLTCMVTDFMPEDIYVEWTNNGKTELNYKNTEPVLDSDGSYFMYSKLRVEKKNWVERNSYSCSVVHEGLHNHHTTKSFSRTPGKTGGRICPKPDDLPFATVVPLKTSYDPGEQIVYSCKPGYVSRGGMRRFTCPLTGMWPINTLRCVPRVCPFAGILENGIVRYTSFEYPKNISFACNPGFFLNGTSSSKCTEEGKWSPDIPACARITCPPPPVPKFALLKDYRPSAGNNSLYQDTVVFKCLPHFAMIGNDTVMCTEQGNWTRLPECLEVKCPFPPRPENGYVNYPAKPVLLYKDKATFGCHETYKLDGPEEAECTKTRTWSFLPTCRESCKLPVKKATVLYQGMRVKIQEQFKNGMMHGDKIHFYCKNKEKKCSYTVEAHCRDGTIEIPSCFKEHSSLAFWKTDASELTPC

Experiments:
[1] = Serum dependence of binding to PS
Description: The serum dependence or independence of the antibodies is also set forth in Table 2 (see also, Example XXX).
The 1B9, 2G7 and 7C5 antibodies behave essentially the same. These antibodies recognize only PS and require serum or serum proteins for binding to PS. The binding of 1B9, 2G7 and 7C5 to various phospholipids in the present example was assayed only in the presence of 10% bovine serum, whereas binding of the other antibodies was tested either in the absence or in the presence of serum.

[2] = Phospholipid specificity ELISA; format: binding
Description: The specificity of the antibodies was determined by ELISA using plates coated with the following phospholipids: PS, phosphatidylserine; PE, phosphatidylethanolamine; PI, phosphatidylinositol; PA, phosphatidic acid; PG, phosphatidylglycerol; PC, phosphatidylcholine; CL, cardiolipin; and SM, sphingomyelin.

[3] = system: MDA-MB-435 breast tumors; experiment: 3G4 and chimeric 3G4 tumor treatment; format: in vivo, mouse; conditions: MD-MBA-435s; IP 800 μg day 15, 200 μg every two to three days, 400 μg day 35
Description: Tumors were also established using MD-MBA-435s cells and treated as described above. […] The treatment of large L540 tumors, MDA-MB-231 and MD-MBA-435s tumor cells for 60 days was also effective. The antibodies caused tumor vascular injury, thrombosis and necrosis and retarded tumor growth, with no evidence of toxicity.
MD-MBA-435s lucerifase cells were obtained from Dr. Angels Sierra Jimenez, Barcelona, Spain and were grown in 10% DMEM. Mice were injected with tumor cells as described as above, and at 2 weeks post injection, the tumors were measured and the volume recorded. […] Treatment was initiated by IP injection (800 μg) at day 15 and continued with injections of 200 μg every two to three days until the final injection of 400 μg at day 35. Tumor volumes and mouse body weights were measured on injection days. Mice were sacrificed and perfused with saline for 12 minutes. The organs and tumor were removed, snap-frozen in liquid nitrogen and the tumor sectioned for immunohistochemistical analysis.
Groups of 8-10 female SCID mice were injected subcutaneously with 2×10^7 L540 cells or orthotopically with 1×10^7 MDA-MB-435 or MDA-MB-231 cells. BALB/c mice were injected subcutaneously with 1×10^6 Meth A cells. […] Animals were monitored three times a week for tumor size and body weight. […]

[4] = Monkey safety studies; format: in vivo, cynomolgus monkeys; conditions: repeat dosing
Description: This is 100 times the calculated therapeutic dose ([…]).

[5] = Administration to atherosclerotic rabbits; conditions: rabbit, in vivo
[6] = Binding of ch3G4 and 2aG4 to phospholipid-coated ELISA plates; conditions: vs murine 3G4
[7] = system: WiDr (colon carcinoma); experiment: WiDr colon carcinoma model; format: in vivo, mouse; conditions: 100 μg 3×/week from day 5; preliminary study
Description: Treatment was started on day 5, when the tumors were small (10 mice per group). 100 μg of each antibody was injected 3×/week and tumor growth monitored.

[8] = system: syngeneic prostatic tumors; experiment: Bavituximab in rats with syngeneic prostatic tumors; conditions: rat, in vivo
[9] = system: mCMV RVG102; experiment: Survival of mCMV-infected mice; format: in vivo, mouse; conditions: past 90 days post infection; untreated 25%
[10] = system: U937 cells infected with Vaccinia virus; format: cell-based; conditions: m.o.i of 2, 2 days
[11] = molecular target: T1, human β2GPI; experiment: Anti-hβ2GPI ELISA; format: binding
Description: The assay was performed as described above with the following modifications. hβ2GPI, nicked hβ2GPI, or recombinant hβ2GPI peptides were coated on 96-well Immunlon 2HB microtiter plates overnight at a concentration of 10 μg/ml. Plates were then blocked in 1% OVA for 1 hr. at room temperature. […] Plates were incubated for 1 hr. at 37° C. and antibody binding was detected. All ELISA studies were performed at least three times.

[12] = system: ABAE cells with exposed PS; experiment: Live-cell binding assay on LPC-treated endothelial cells; format: cell-based, bovine
Description: Adult bovine aortic endothelial (ABAE) cells were maintained in DMEM supplemented with 10% FBS and 2 mM L-glutamine. ABAE cells were removed from subconfluent cultures by brief exposure to 0.25% trypsin/0.02% EDTA, and 8-well chamber slides were seeded with 2×10^4 cells/well. Following overnight culture, cells were washed gently with PBS and treated with 200 μM lysophosphatidylcholine (LPC) to induce PS exposure.
PS exposure was determined by immunofluorescence staining. Cells were washed thoroughly in PBS, fixed in 4% paraformaldehyde (w/v), and incubated with a biotin-conjugated anti-mouse secondary antibody. Next, cells were incubated with FITC-conjugated streptavidin (Jackson Immunoresearch) to detect antibody binding. Cells were then permeablized with 0.1% Triton-X100 in PBS and counterstained with Texas Red-conjugated phalloidin (Molecular Probes, Eugene, Oreg.), and 4′, 6-diamidino-2-phenylindole (DAPI; Molecular Probes). Images were captured using a Coolsnap digital camera (Photometrics, Tucson, Ariz.) mounted on a Nikon microscope and processed with MetaVue software (Universal Imaging Corporation, Downingtown, Pa.).
The area of antibody binding was determined using MetaVue image analysis software, which is able to quantify the number of illuminated pixels in an image. Images of FITC fluorescence were used to quantify antibody binding. Corresponding images of DAPI fluorescence were used to normalize the FITC images for the number of cells present in the field. A small FITC/DAPI ratio indicates a small antibody binding area, whereas a large FITC/DAPI ratio indicates a large binding area. The FITC/DAPI ratios were used to determine increases or decreases in antibody binding area relative to a basal amount of antibody binding under the selected conditions. Five images at 200× magnification were used for each analysis. Data are presented as average relative FITC/DAPI ratios with error bars representing the standard deviation.
Cells were then washed, fixed, and stained with fluorescent markers to visualize binding of antibody to the cell surface.

[13] = Fc-mβ2GPI binding to PS-coated plates; conditions: cell culture supernatants #8 and #18
Description: FIG. 20. Fc-mβ2GPI binds PS on PS-coated plates. In this binding assay, a microtiter plate was coated with PS and blocked with 1% OVA. Serial dilutions of Fc-mβ2GPI cell culture supernatants were performed in 1% OVA. #8 and #18 are two different clones of Fc-mβ2GPI. Binding was detected with anti-mouse IgG-HRP.
Fc-mβ2GPI was able to bind to PS on PS-coated plates.

[14] = Fc-mβ2GPI binding to phospholipids in 10% FBS
Description: FIG. 21. Fc-mβ2GPI binds anionic phospholipids. This assay measures Fc-mβ2GPI binding to phospholipids in 10% FBS. The microtiter plates were coated with various lipids, as indicated, and blocked with 1% OVA. Serial dilutions of Fc-mβ2GPI cell culture supernatant were performed in 1% OVA. Binding was detected with anti-mouse IgG-HRP.

[15] = system: ABAE cells; experiment: Fc-mβ2GPI binding to cells with exposed PS; format: cell-based, bovine
Description: FIG. 22A, FIG. 22B and FIG. 22C. Fc-mβ2GPI detects PS exposed on naturally apoptotic ABAE cells. 2×10^4 ABAE cells were seeded onto 8-well glass chamber slides in DMEM+10% FBS overnight at 37° C. The next day, cells were washed and incubated with 2aG4 (FIG. 22A), supernatant from Fc-mβ2GPI transfected CHO cells (FIG. 22B), or mock transfected cells (“control supernatant”, FIG. 22C). 2aG4 and Fc-mβ2GPI were detected with a FITC-labeled secondary antibody (green). The cytoskeletons and nuclei were counter-stained with Texas Red-labeled phalloidin and DAPI (blue), respectively. Arrows highlight apoptotic cells.
FIG. 23A and FIG. 23B. Fc-mβ2GPI detects PS exposed on LPC-treated ABAE cells. 2×10^4 ABAE cells were seeded onto 8-well glass chamber slides in DMEM+10% FBS overnight at 37° C. The next day, cells were washed and incubated supernatant from Fc-mβ2GPI transfected CHO cells. Fc-mβ2GPI was detected with a FITC-labeled secondary antibody (green). The cytoskeletons and nuclei were counter-stained with Texas Red-labeled phalloidin and DAPI (blue), respectively. FIG. 23A and FIG. 23B each depict binding of Fc-mβ2GPI, seen as small pinpoints of green staining.

Molecule	Serum cofactor? [1]	Relative Strength of Reactivity on ELISA [2]	tumor growth vs control [3]	No adverse effect level (NOAEL) [4]	safety in atherosclerotic rabbits ([5]; listed as chimeric version of the 3G4 antibody)	safety in atherosclerotic rabbits ([5]; listed as humanized 3G4 antibody)	binding to phospholipid-coated ELISA plates [6]	tumor growth [7]	tumor homing of radiolabeled antibody [8]	tumor perfusion [8]	survival [9]	FACS shift vs uninfected cells [10]	binding to nicked hβ2GPI coated on microtiter plates [11]	binding to LPC-treated ABAE cells ([12]; 10% MS plus purified hβ2GPI)	binding to LPC-treated ABAE cells ([12]; 10% MS, no hβ2GPI)	binding to PS on PS-coated plates [13]	binding to phospholipids [14]	binding to LPC-treated ABAE cells [15]	staining of naturally apoptotic ABAE cells [15]
ch3G4: Human-mouse chimeric (human IgG1) version of 3G4, termed bavituximab	Yes	PS = PA = PI = PG = CL >> PE	effectively retarded tumor growth	approximately 10 mg/kg/week	did not exacerbate aortic atherosclerotic lesions	shown to be safe	bound at least as did well as the murine 3G4	slowed tumor growth to essentially the same degree	shown to home to syngeneic prostatic tumors in rats	Reduced tumor perfusion	80%	significant shift	binds nicked hβ2GPI as well as hβ2GPI	widespread binding	no antibody binding was detected	–	–	–	–
B1	–	–	–	–	–	–	–	–	–	–	–	–	–	–	–	bind to PS in a concentration-dependent manner	binds to the anionic phospholipids PS, PA, PI and PG, but not to the neutral lipids, PC and SM	bind to PS exposed at the cell surface	stain the apoptotic cells

Reference: patent US20160311886A1, “Constructs Binding to Phosphatidylserine and Their Use in Disease Treatment and Imaging” (Board of Regents, The University of Texas System, priority 2005, published 2016)
